Test results from PMC12295927, “Design, Synthesis, and Testing of 1,2,3-Triazolo-Quinobenzothiazine Hybrids for Cytotoxic and Immunomodulatory Activity” (International Journal of Molecular Sciences, 2025).

How the values were obtained:
AIFM2 gene = test: RT-qPCR AIFM2 gene expression in BEAS-2B; format: cell-based, Human; conditions: 24 h; for fold induction at 100 µM: Homo sapiens, reference gene RPL41, vs untreated control, read-out: Relative level of expression, AIFM2 gene; for AIFM2 expression increase: 100 μM, compared to control
Method: (§1) Real-time polymerase chain reaction was performed for the reference gene RPL41 (ribosomal protein L41) and the tested genes: BCL2, AIFM2, MDM2, IL6 and IL8. […] The BEAS-2B line was selected for the experiment. The expression level of selected genes was measured after 24 h of incubation with the tested substances MJ1–MJ20 at a concentration of 100 μM (Table 3).
The RT-qPCR experiment was performed for the BEAS-2B cell line. In this experiment, the AIFM2 gene was studied and RPL41 was used as reference gene (Figure 16).
(§2) Gene expression studies used quantitative RT-qPCR to assess the effect of the tested quinobenzothiazines (MJ1–MJ20) on the expression of apoptosis-related genes (BCL2, AIFM2, MDM2) and pro-inflammatory cytokines (IL6, IL8) (Table 4).
(§3) BEAS-2B and HCT116 cells were seeded in 6-well plates at 2 × 10^5 cells per well and cultured in RPMI-1640 (BEAS-2B) or DMEM (HCT116) medium supplemented with 10% FBS and 1% penicillin/streptomycin at 37 °C, 5% CO2 and 95% humidity. After 24 h of incubation, the tested compounds were added at a concentration of 100 µM. After 24 h, the medium was removed from the cells, washed with PBS solution, 0.5 mL of trypsin was added per well and after 5 min it was neutralized with medium. The obtained cell suspension was centrifuged for 3 min at 2000 rpm, the supernatant was removed, and the obtained pellet was suspended in 400 µL of phenozol. Samples were frozen at −20 °C and stored until further experiment and RNA isolation.
(§4) Total RNA was isolated from cells using the A&A Biotechnology Total RNA Mini kit according to the manufacturer’s protocol. RNA quality and quantity were assessed using a NanoDrop 2000 spectrophotometer at 260/280 nm. Reverse transcription was performed using the protocol (EURx NG dART RT Kit) to obtain cDNA. After incubation, samples were placed in a freezer (−20 °C) and stored until further analysis.
(§5) The experiment was performed according to the protocol (Brilliant III Ultra Fast SYBR® Green QPCR Master Mix, Quick Reference Guide for the Bio-Rad CFX96 Real-Time PCR Detection System). RT-qPCR reaction was performed using specific primers for target genes (BCL2, AIFM2, MDM2, IL6, IL8). Gene expression was normalized to the expression of the reference gene RPL41. Reaction profiles and results were performed using Bio-Rad CFX Maestro 1.1 software from Bio-Rad. Analysis and calculations of the results obtained during RT-qPCR were performed using Microsoft Excel.
(§6) The results were analyzed using the R = 2^−ΔΔCt method, which allows for determining the relative level of gene expression (R) compared to the control. Each experiment was performed in three technical and biological replicates. RT-qPCR allowed for precise assessment of changes in the expression of genes related to the processes of apoptosis and inflammatory response under the influence of quinobenzothiazines, which allowed for identifying their potential mechanisms of action at the molecular level.

IL8 gene = test: RT-qPCR IL8 gene expression in BEAS-2B; format: cell-based; conditions: Homo sapiens, 24 h, reference gene RPL41, vs untreated control, read-out: Relative level of expression, IL8 gene
Method: as §1
The RT-qPCR experiment was performed for the BEAS-2B cell line. In this experiment, the IL6 and IL8 genes were studied and RPL41 was used as a reference gene (Figure 17 and Figure 18).
as §2, §3, §4, §5, §6

BEAS-2B cells = test: DAPI staining for nuclear morphology and apoptosis, BEAS-2B; format: cell-based, Human; conditions: 100 μM, 24 h
Method: (§7) The BEAS-2B, NHDF, HCT116, MCF7, SH-SY5Y, A549 cell lines studied were cultured in DMEM medium supplemented with 10% fetal bovine serum (FBS) and 1% penicillin/streptomycin solution. Cells were seeded at 1 × 10^4 per well in 96-well plates and incubated for 24 h under standard culture conditions: temperature 37 °C, 5% CO2, 95% humidity. After 24 h, compounds from the MJ1–MJ20 group were added to individual wells at different concentrations (6.25 µM, 12.5 µM, 25 µM, 50 µM, 100 µM). The control consisted of cells grown only in medium without the addition of chemical compounds. After 24 h of incubation, cells were observed under a microscope (JuLI™ FL Live fluorescence microscope from NanoEntek, Martinsried, Germany), documenting morphological changes. Observations included visual assessments of confluence, cell shape, arrangement, and interaction with the substrate. The Supplementary Materials include a comprehensive collection of microscopic images showing the morphology of the tested cell lines (BEAS-2B, NHDF, HCT116, MCF7, SH-SY5Y, A549) after 24 h of incubation with compounds MJ1–MJ20. These images illustrate the effects of the compounds on cell shape, density, and adhesion. The images are provided as a separate PDF file for further reference. For apoptosis observations, the samples of BEAS-2B and HCT116 cells were additionally fixed with 4% paraformaldehyde (PFA) after 24 h of incubation with, or without selected compounds (Section 2.6) and DAPI stained for apoptotic bodies visualization (Fluoromount-G™ medium with DAPI dye; Thermo Fisher Scientific, Waltham, MA, USA). The samples were visualized using fluorescent microscopy AXIO IMAGER M1 by ZEISS, DAPI channel and 20x magnification. The percent of counted cells with apoptotic nucleus was defined in comparison to all visualized events.
(§8) BEAS-2B and HCT116 cells were seeded into culture plates at 5 × 10^3 cells per well using 0.5 mL of RPMI-1640 medium (for BEAS-2B) or DMEM (for HCT116). The plates were incubated for 24 h at 37 °C in an atmosphere containing 5% CO2. After incubation, the medium was removed and compounds MJ2, MJ8, MJ15, and MJ19 were added in the appropriate medium at a concentration of 100 μM. The plates were incubated for 24 h at 37 °C in an atmosphere containing 5% CO2. After incubation, the medium was removed, and 500 µL of 4% paraformaldehyde (PFA) was added to each well to fix the cells. Incubation continued for 10 min at room temperature. After removal of the PFA, the wells were rinsed with 500 µL of PBS (5 min of incubation) and then with distilled water. The cells were allowed to dry at room temperature. After drying, the cells were stained with DAPI. Observations were made using a fluorescence microscope AXIO IMAGER M1 by ZEISS at 20x magnification.

HCT116 cells = test: DAPI staining for nuclear morphology and apoptosis, HCT116; format: cell-based, Human; conditions: HCT116, 100 μM, 24 h
Method: as §7, §8

MDM2 gene = test: RT-qPCR MDM2 gene expression in BEAS-2B; format: cell-based, Human; conditions: 24 h; for fold induction at 100 µM: Homo sapiens, reference gene RPL41, vs untreated control, read-out: Relative level of expression, MDM2 gene
Method: as §1
The RT-qPCR experiment was performed for the BEAS-2B cell line. In this experiment, the MDM2 gene was studied and RPL41 was used as reference gene (Figure 15).
as §2, §3, §4, §5, §6

Row | Structure (SMILES) | fold induction at 100 µM (AIFM2 gene) | fold induction at 100 µM (IL8 gene) | Apoptotic changes in cell nuclei (DAPI) (BEAS-2B cells) | Apoptotic changes in cell nuclei (DAPI) (HCT116 cells) | fold induction at 100 µM (MDM2 gene) | AIFM2 expression increase (AIFM2 gene) [fold] | MDM2 expression increase (MDM2 gene; 100 μM, compared to control) [fold]
1 | Fc1ccc2c(c1)Sc1cc3ccccc3nc1N2Cc1cn(Cc2ccc(Cl)cc2)nn1 [MJ8, 9-Fluoro-6-[(1-(4-chlorobenzyl)-1H-1,2,3-triazol-4-yl)methyl]-quino[3,2-b]benzo-[1,4]thiazine] | 4.2 | 4 | no significant apoptotic changes | no significant apoptotic changes | 8.1 |  | 
2 | CSc1ccc2c(c1)Sc1cc3ccccc3nc1N2Cc1cn(Cc2ccc(C#N)cc2)nn1 [MJ19, 4-((4-((9-Methylthioquino[3,2-b]benzo[1,4]thiazin-6-yl)methyl)-1H-1,2,3-triazol-1-yl)methyl)benzonitrile] | 14.9 | 12.8 | no significant apoptotic changes | no significant apoptotic changes | 10.3 | 14.9 | 10.3
3 | Fc1ccc(Cn2cc(CN3c4ccccc4Sc4cc5ccccc5nc43)nn2)cc1 [MJ2, 6-((1-(4-Fluorobenzyl)-1H-1,2,3-triazol-4-yl)methyl)-quino[3,2-b]benzo[1,4]thiazine] | 11.4 | 0.4 | no significant apoptotic changes | no significant apoptotic changes | 6.3 | 11.4 | 
4 | Clc1ccc2c(c1)Sc1cc3ccccc3nc1N2Cc1cn(CSc2ccccc2)nn1 [MJ15, 9-Chloro-6-((1-((phenylthio)methyl)-1H-1,2,3-triazol-4-yl)methyl)-quino[3,2-b]benzo[1,4]thiazine] | 2.6 | 5 | no significant apoptotic changes | no significant apoptotic changes | 6.4 |  | 
